Test results reported in patent US12012467B2, “Small molecule DCN1 inhibitors and therapeutic methods using the same” (THE REGENTS OF THE UNIVERSITY OF MICHIGAN, priority 2017, dated 2024).
Square brackets hold non-standard residues; d marks the D form. Peptide text beside a SMILES is read from it. Ala(benzothiazol-2-yl) = N[C@@H](Cc1nc2ccccc2s1)C(=O)O; 2Nal = N[C@@H](Cc1ccc2ccccc2c1)C(=O)O

Target: DCN1 (Homo sapiens (Human), UniProt Q96GG9)
Assay: Competitive FP binding assay
Conditions: bounds given in μM; read-out: Binding affinity to DCN1 (IC50)
Description: Competitive FP Binding Assay
The Fluorescence Polarization (FP) competitive binding assays were performed to accurately determine the binding affinities of our DCN1 inhibitors. […] Serial dilutions of proteins were mixed with 46 to a final volume of 200 μl in the assay buffer (100 mM phosphate buffer, pH=6.5, with 0.02% Tween-20 and 2% DMSO). Final probe concentration was 5 nM for both assays. Plates were incubated at room temperature for 30 minutes with gentle shaking to assure equilibrium.
Pure proteins were derived from the same expression and purification protocols. Plasmids were transformed into Rosetta2 cells, the cells were grown in Terrific Broth at 37° C. to an O.D.600>1.0 and induced with 0.4 mM Isopropyl (3-D-1-thiogalactopyranoside overnight at 20° C. The pelleted cells were resuspended in lysis buffer containing 25 mM Tris-HCl, pH 7.5, 200 mM NaCl and protease inhibitors, sonicated and centrifuged at 34,000×g for 45 minutes to remove debris. Cleared lysate was incubated with Ni-NTA resin (Qiagen) prewashed with lysis buffer, for 1 hr at 4° C. The matrix was loaded into a column then washed with 25 mM Tris-HCl, pH 7.5, 200 mM NaCl and 10 mM imidazole. Protein was eluted with 25 mM Tris-HCl, pH 7.5, 200 mM NaCl and 300 mM imidazole, concentrated and applied to a Superdex 75 (GE Healthcare) column pre-equilibrated with 25 mM Tris pH 7.5, 200 mM NaCl and 1 mM DTT. For DCN2-5, the N-terminal His6 tag was removed prior to gel filtration. Tag removal was achieved through incubation with TEV protease during overnight dialysis against 25 mM Tris pH 7.5, 200 mM NaCl and 1 mM DTT and a second Ni-NTA column. DCN2-5 proteins were stored at −80° C. in 1 mg/mL fractions containing 5% glycerol. The uncleaved DCN1 protein was stored at −80° C. without glycerol.

DCN1, sequence (Q96GG9 58-259): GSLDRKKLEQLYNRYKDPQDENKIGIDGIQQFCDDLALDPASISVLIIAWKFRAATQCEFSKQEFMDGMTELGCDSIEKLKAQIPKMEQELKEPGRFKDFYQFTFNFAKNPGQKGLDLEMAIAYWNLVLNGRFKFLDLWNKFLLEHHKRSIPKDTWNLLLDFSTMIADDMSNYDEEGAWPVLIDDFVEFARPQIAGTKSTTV

SMILES	IC50 [µM]
CCC(=O)N[C@@H](Cc1nc2ccc(Cl)cc2s1)C(=O)N[C@H](CN)Cc1ccccc1 (stereo in doubt) [Example 87]	> 10
CCC(=O)N[C@@H](Cc1nc2ccc(Cl)cc2s1)C(=O)N[C@@H](CN)Cc1ccccc1 (stereo in doubt) [Example 88]	> 10
CCC(=O)N[C@@H](Cc1nc2ccc(C(C)C)cc2s1)C(=O)N[C@H](CN)Cc1ccccc1 (stereo in doubt) [Example 89]	> 10
CCC(=O)N[C@@H](Cc1nc2ccc(C(C)C)cc2s1)C(=O)N[C@@H](CN)Cc1ccccc1 (stereo in doubt) [Example 91]	> 10
CCC(=O)N[C@@H](Cc1nc2ccc(C(C)C)cc2s1)C(=O)N[C@@H](CNC(=O)CCN1CCOCC1)Cc1ccccc1 (stereo in doubt) [Example 94]	> 10
CC(C)CC(C)C(=O)N[C@@H](Cc1nc2ccc(C(C)C)cc2s1)C(=O)NCCN (stereo partly drawn) [97 & 98]	> 10
CCC(=O)N[C@@H](Cc1nc2ccc(Cl)cc2s1)C(=O)N[C@@H](C[C@H]1CC[C@H](CNC(=O)COCCOCCOCCNC(=O)CCCC[C@@H]2SC[C@@H]3NC(=O)N[C@@H]32)CC1)C(=O)N[C@@H](CCCCN(C)C)C(=O)N[C@@H]1CCOc2ccccc21 [DI-427biotin (NC)]	> 10
CCC(=O)N[C@@H](Cc1nc(C)n(-c2ccccc2)n1)C(=O)N[C@H](CN)Cc1ccccc1 [DI-532]	> 10
CCC(=O)N[C@@H](Cc1nc(C)n(C(C)C)n1)C(=O)N[C@H](CN)Cc1ccccc1 [DI-533]	> 10
CC[C@H](C)[C@H](NC(=O)[C@H](Cc1ccc2ccccc2c1)NC(C)=O)C(=O)N[C@@H](CCCCN)C(=O)N[C@@H](CC(C)C)C(N)=O [Example 1] (Ac-[2Nal]IKL-NH2)	> 10

Same assay, conditions: read-out: Binding affinity to DCN1 (IC50 (nM))

SMILES	IC50 [µM]
CCC(=O)N[C@@H](Cc1cn2cc(C(C)C)ccc2n1)C(=O)N[C@H](C(=O)N[C@@H](CCCCN)C(=O)N[C@@H]1CCOc2ccccc21)C1CCOCC1 [210 & 211]	0.0812
CCC(=O)N[C@@H](Cc1nc2ccc(Cl)cc2s1)C(=O)N[C@H](C(=O)N[C@@H](CCCCN)C(=O)NC(c1ccccn1)c1ccccn1)C1CCOCC1 [244 & 245]	0.297
CCC(=O)N[C@@H](Cc1nc2ccc(Cl)cc2s1)C(=O)N[C@H](C(=O)N[C@@H](CCCCN)C(=O)N[C@@H](c1ccccc1)c1cn(CCO)nn1)C1CCOCC1 [249 & 250]	0.12
CCC(=O)N[C@@H](Cc1nc2ccc(Cl)cc2s1)C(=O)N[C@@H](C[C@H]1CC[C@H](CNC(=O)COCCOCCOCCNC(=O)CCCC[C@@H]2SC[C@@H]3NC(=O)N[C@@H]32)CC1)C(=O)N[C@@H](CCCCN(C)C)C(=O)N[C@@H]1CCOc2ccccc21 [DI-427biotin]	0.189
CCC(=O)N[C@@H](Cc1nc2ccc(C(C)C)cc2s1)C(=O)N[C@H](CNC(=O)NC1CCNCC1)C1CCCCC1 [DI-749]	0.0529
CCC(=O)N[C@@H](Cc1nc2ccc(C(C)C)cc2s1)C(=O)N[C@H](CNS(=O)(=O)C1CCNCC1)C1CCCCC1 [DI-777]	0.0553
CC[C@H](C)[C@H](NC(=O)[C@H](Cc1nc2ccccc2s1)NC(C)=O)C(=O)N[C@@H](CCCCN)C(=O)N[C@@H](CC(C)C)C(N)=O [Example 2, (S)-2-((2S,3 S)-2-((S)-2-acetamido-3-(benzo[d]thiazol-2-yl)propanamido)-3-methylpentanamido)-6-amino-N—((S)-1-amino-4-methyl-1-oxopentan-2-yl)hexanamide] (Ac-[Ala(benzothiazol-2-yl)]IKL-NH2)	0.322
CC[C@H](C)[C@H](NC(=O)[C@H](Cc1nc2cc(Cl)ccc2s1)NC(C)=O)C(=O)N[C@@H](CCCCN)C(=O)N[C@@H](CC(C)C)C(N)=O [Example 3, (S)-2-((2S,3 S)-2-((S)-2-acetamido-3-(5-chlorobenzo[d]thiazol-2-yl)propanamido)-3-methylpentanamido)-6-amino-N—((S)-1-amino-4-methyl-1-oxopentan-2-yl)hexanamide]	0.0092 ± 0.0014
